ChEMBL document CHEMBL1201862, “PubChem BioAssay data set” (2004)
Active and inactive are the calls of the source.

Experiments:
[1] = NIH:OVCAR-3 ovarian cancer cell cytotoxicity, dose response, PAX8 inhibitor project, plate reader, dry powder samples (AID 743044); assay type: functional, cell-based
[2] = IGROV1 ovarian cancer cell cytotoxicity, dose response, PAX8 inhibitor project, plate reader, dry powder samples (AID 743043); assay type: functional, cell-based; conditions: IGROV-1
Paired box protein Pax-8 = Paired box protein Pax-8 (Homo sapiens, UniProt Q06710); experiment: inhibitors of PAX8-driven TPO luciferase reporter, dose response, RMG-I cells, cherry-pick (AID 687027); assay type: functional, cell-based;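 further: luciferase reporter driven by Pax8 target thyroperoxidase promoter measured by SteadyGlo luminescence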
[3] = non-specific cell cytotoxicity, dose response, cytotoxicity control for PAX8 inhibitor project, plate reader, dry powder samples (AID 743021); assay type: functional, cell-based
[4] = inhibitors of PGC1a acetylation in cells, dose response, cell-based, cherry-picked samples (AID 720514); assay type: functional;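 further: potency may reflect raised or lowered acetylation signal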
[5] = IOSE-T80 ovarian epithelial cell cytotoxicity, dose response, cytotoxicity control for PAX8 inhibitor project, plate reader, dry powder samples (AID 743045); assay type: functional, cell-based
[6] = cytotoxicity toward NIH3T3 fibroblasts, dose response, counter-screen, cell-based, ATP luminescence, mouse fibroblasts (AID 2010); assay type: functional;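 further: cells exposed to compound for about 90 hours before reading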
[7] = molecular target: T1, Oxysterols receptor LXR-beta (Homo sapiens, UniProt P55055); assay type: functional, cell-based;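 further: Cell-based luminescence dose-response assay of agonist activity at LXR, run as a confirmatory counterscreen to a daf-12 agonist screen; HEK293 cells with Gal4-LXR fusion and GAL4-driven luciferase reporter; agonist potency from rising luciferase signal of a Gal4-LXR reporter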
T1 sequence (P55055 whole entry): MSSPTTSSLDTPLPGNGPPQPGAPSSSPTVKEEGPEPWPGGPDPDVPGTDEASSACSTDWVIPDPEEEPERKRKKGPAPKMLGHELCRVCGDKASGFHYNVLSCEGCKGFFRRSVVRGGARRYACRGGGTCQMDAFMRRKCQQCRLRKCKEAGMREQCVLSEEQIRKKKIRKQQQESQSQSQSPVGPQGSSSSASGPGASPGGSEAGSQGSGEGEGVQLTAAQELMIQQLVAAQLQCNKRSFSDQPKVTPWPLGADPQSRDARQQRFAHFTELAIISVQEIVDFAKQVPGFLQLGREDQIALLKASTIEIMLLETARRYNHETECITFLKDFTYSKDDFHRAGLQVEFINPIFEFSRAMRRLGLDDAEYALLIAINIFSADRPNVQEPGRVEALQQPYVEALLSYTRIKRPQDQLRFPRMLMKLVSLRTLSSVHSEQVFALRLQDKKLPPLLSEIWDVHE

[8] = inhibitors of intracellular T. cruzi replication, confirmation, NIH3T3 host cells, beta-gal luminescence (AID 2044); assay type: functional, cell-based;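 further: intracellular parasites grown in NIH/3T3 mouse fibroblasts as host cells; luminescent beta-galactosidase reporter signal from transgenic T. cruzi replicating inside host cells; inhibitors lower the luminescence signal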
[9] = Shn3 3'UTR reporter inhibitors, dose response, cell-based, Clone20 osteoblasts, firefly luciferase, cherry-picked (AID 624132); assay type: functional;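 further: firefly luciferase luminescence from reporter carrying the Shn3 3'UTR in osteoblasts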
[10] = cytotoxicity in MIN6 insulinoma cells, dose response, cytotoxicity control, cell-based, mouse insulinoma (AID 2122); assay type: functional;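 further: confirmatory high-throughput counterscreen run to flag cytotoxic compounds; mouse MIN-6 beta cells carrying an insulin promoter eGFP reporter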
[11] = insulin promoter down-regulators in MIN6 cells, imaging, high-content screening, mouse beta cells (AID 1628); assay type: functional
INS1 = experiment: beta cell apoptosis inhibitors, cytokine rescue, dose response, luminescence, retest (AID 449756); assay type: functional, cell-based; conditions: Rattus norvegicus;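 further: cell death triggered by IL-1 beta plus TNF-alpha plus IFN-gamma mixture; protective hits raise ATP signal compared with cytokine alone wells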
[12] = molecular target: COUP transcription factor 2 (Homo sapiens, UniProt P24468); experiment: Luminescence-based cell-based high throughput dose response assay to identify inhibitors of COUP-TFII (NR2F2).; assay type: functional;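 further: HEK293 cells transiently cotransfected with COUP-TFII expression vector and reporter; luciferase reporter luminescence driven by COUP-TFII from the pX2-168 reporter plasmid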
[13] = HepG2 cell cytotoxicity, dose response, cytotoxicity control for Shn3 inhibitor project, CellTiter-Glo, cherry-picked (AID 624134); assay type: functional, cell-based
[14] = cytotoxicity in HEK-293T cells, dose response, cytotoxicity control for TCR NF-kB inhibitor project, luminescence, T-cell screen hits (AID 489026); assay type: functional, cell-based;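 further: cells exposed to compound about 14 hours before the viability readout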
[15] = control 3'UTR Renilla luciferase suppression, dose response, counter-screen for Shn3 inhibitor project, cell-based, Clone20-Shn3RL, cherry-picked (AID 624133); assay type: functional
[16] = HEK293T cell cytotoxicity, dose response, cytotoxicity control, CellTiter-Glo luminescence, dry powder, set 6 (AID 651949); assay type: functional, cell-based; conditions: HEK293

Paired box protein Pax-8, sequence (Q06710 whole entry): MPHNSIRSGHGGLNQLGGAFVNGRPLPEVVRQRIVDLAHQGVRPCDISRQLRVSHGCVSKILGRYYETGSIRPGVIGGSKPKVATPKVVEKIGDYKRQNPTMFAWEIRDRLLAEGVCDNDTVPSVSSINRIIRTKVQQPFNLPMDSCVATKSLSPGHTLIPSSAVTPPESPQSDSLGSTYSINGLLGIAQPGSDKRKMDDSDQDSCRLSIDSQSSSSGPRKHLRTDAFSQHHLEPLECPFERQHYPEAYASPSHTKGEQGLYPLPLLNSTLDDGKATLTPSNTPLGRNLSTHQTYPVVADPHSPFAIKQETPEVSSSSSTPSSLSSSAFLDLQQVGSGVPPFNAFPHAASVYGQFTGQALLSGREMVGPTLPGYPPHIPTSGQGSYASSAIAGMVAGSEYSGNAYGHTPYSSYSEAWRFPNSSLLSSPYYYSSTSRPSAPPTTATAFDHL
COUP transcription factor 2, sequence (P24468 whole entry): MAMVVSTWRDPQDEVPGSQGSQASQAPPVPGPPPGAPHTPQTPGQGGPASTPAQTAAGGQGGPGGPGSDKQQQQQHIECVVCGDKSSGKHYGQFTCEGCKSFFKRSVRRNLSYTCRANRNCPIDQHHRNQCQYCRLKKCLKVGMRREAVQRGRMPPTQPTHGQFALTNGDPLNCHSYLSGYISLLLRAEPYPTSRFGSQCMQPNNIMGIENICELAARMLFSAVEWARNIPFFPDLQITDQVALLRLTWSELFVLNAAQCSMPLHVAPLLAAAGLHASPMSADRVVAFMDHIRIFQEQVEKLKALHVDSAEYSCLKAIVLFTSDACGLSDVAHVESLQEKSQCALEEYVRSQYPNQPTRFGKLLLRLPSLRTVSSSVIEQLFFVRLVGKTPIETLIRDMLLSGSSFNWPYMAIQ

O=C(Nc1cccc(F)c1)N1C[C@@H]2N[C@H](C1)[C@@H]2c1ccc(-c2ccc(F)cc2)cc1
AC50 [1]: 17.7 µM (active) | AC50 [2]: 22.4 µM (active) | AC50 (Paired box protein Pax-8): 19.5 µM (active) | AC50 [3]: 65.7 µM (active) | AC50 [4]: 18.5 µM (active) | AC50 [5]: 34.3 µM (active)

NC(=S)N/N=C/c1ccc(-c2ccc(Cl)c(Cl)c2)o1
EC50 [6]: > 60 µM (not active) | EC50 (cells): > 67.5 µM (inactive) | EC50 [7]: > 67.5 µM (inactive) | EC50 [8]: 0.983 µM (active)

CCC(O)C1CCN(C(=O)c2cc(COc3ccc4ncccc4c3)on2)CC1 (centres undefined)
AC50 [9]: 0.505 µM (active) | IC50 [10]: 0.294 µM (active) | IC50 [11]: 0.571 µM (active) | AC50 (INS1): 3.38 µM (active) | IC50 [12]: 4.46 µM (active) | AC50 [13]: 1.75 µM (active) | IC50 [14]: > 80 µM (inactive) | AC50 [15]: 10.9 µM (active)

c1ccc(CNCCSc2nnc(-c3ccccc3)o2)cc1
AC50 [16]: > 52 µM (inactive)
